Assays:
[1] = system: MDA-MB-231 breast adenocarcinoma cells; details: MDA-MB-231 cells; for TRAIL sensitizing activity: compound 4 h, then TRAIL 20 h (Fig. 4)
BIR2 domain of XIAP = BIR2 domain of XIAP (Homo sapiens, UniProt P98170); details: from Ki values
Sequence of BIR2 domain of XIAP (P98170 124-240 limits assumed): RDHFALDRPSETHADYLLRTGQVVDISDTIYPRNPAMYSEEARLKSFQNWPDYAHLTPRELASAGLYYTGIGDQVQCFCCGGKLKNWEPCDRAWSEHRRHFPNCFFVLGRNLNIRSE

Molecule	TRAIL sensitizing activity [1]	selectivity for BIR2 vs. BIR3 (BIR2 domain of XIAP)	LD50 of TRAIL ([1]; TRAIL alone)
CN[C@@H](C)C(=O)N[C@H](C(=O)N1CCC[C@H]1C(=O)N[C@@H]1CCCc2ccccc21)C(C)C [Compound 9f]	strong TRAIL sensitizing activity		
CN[C@@H](C)C(=O)N[C@H](C(=O)N1CCC[C@H]1C(=O)NNc1ccccc1)C(C)C [Compound 9j]	slightly less potent	three-fold selective	
TRAIL: apoptosis-inducing agent added to MDA-MB-231 cells at varying concentrations			could not be achieved
